Assay results published in publication PMC5642494 (Oncotarget, 2017).
Like-named read-outs stand apart in the source and are kept apart here.

Assays:
pRb (Ser780) = assay: High content imaging of Rb phosphorylation (Ser780), MCF7; format: cell-based; settings: Homo sapiens, mean ± Stdev n = 2
Method: (§1) Relative IC50/EC50 values were determined by curve fitting to a four parameter logistic equation: Y = bottom + ((top-bottom)/ (1+exp(HillSlope*(X – LnIC50)), where X is the natural log of dose/concentration, Y is response, decreasing as X increases, top and bottom are plateaus in the same units as Y, lnIC50 is the natural log of potency, in the same log units as X, and HillSlope measures the steepness of the curve. Data were plotted using GraphPad Prism.
As controls, cells were treated with 10 µM palbociclib or vehicle ( 0.2 % v/v DMSO). Additional details for cell-based assays are provided in the Supplemental Methods. […]
(§2) www.impactjournals.com/oncotarget/ Oncotarget Supplementary Materials
(§3) Preclinical characterization of abemaciclib in hormone receptor […]
METHODS High content imaging cell-based assays for monitoring phosphorylation of Rb (ser780), G1 arrest and
Enzyme kinetics of CDK6/cyclin D3 complexes Cells were fixed with para-formaldehyde and Rb phosphorylation at Serine 780 was detected using CDK6/cyclin D3 activity was measured by the a primary mouse anti-Rb (PS780) antibody followed phosphorylation of CTRF using [g-33P] […] Plates were read in an kinase buffer containing 68 mM Hepes at pH 7.5, 6.67 mM Acumen Explorer eX3 (TTP Labtech). […]
(EDTA) was used to determine the level of background evaluated by measuring PI signal using high content 33P in the absence of enzyme activity. […]

ZR-75-1 xenograft tumors = assay: In vivo target inhibition, immunoblotting of ZR-75-1 xenograft tumors; design: species or system mouse; settings: 50 or 75 mg/kg QD x 5, Western blots
Method: Control animals were treated with vehicle (1% HEC/ 25 mM phosphate buffer, pH = 2) using the same schedule of dosing. The red bar just above the X-axis illustrates the duration of the treatment period. Tumor volume measurements were taken routinely during the course of the study and are plotted as mean +/- SEM versus days following tumor cell implantation. (B) Body weights were recorded routinely during the course of the study and are plotted as mean % change (+/– SEM) relative to the mean body weight recorded on the day just prior to the first day of dosing (baseline day = 27). (C) The waterfall plots indicate the relative tumor volumes for individual animals which were determined at the end of the dosing period (study day 55). […] Growth inhibition is observed in those instances where the calculated changes in %DT/C are less than 100% whereby greater inhibition results in smaller %DT/C values. Change in %DT/C values that are less than zero indicate regressions whereby the tumor volumes on day 55 are smaller than the baseline tumor volume measured on the day prior to the initiation of dosing (baseline day = day 27). […] The tumor volumes measured on day 27 served as the baseline volumes for the calculation of %DT/C. […] Potential CDK9 inhibition was assessed by measuring the expression of MCL1 or phosphorylation of serine 2 on the C-terminal domain repeat on RNA polymerase II (pCTD). […]

MDA-MB-361 cells = assay: PI high content imaging of G1 arrest and cell proliferation, MDA-MB-361; format: cell-based; settings: Homo sapiens, at least 2 DT
Method: as §1, with “Prism. […]” for “Prism.”
as §2, §3
Enzyme kinetics of CDK6/cyclin D3 complexes Cells were fixed with para-formaldehyde and Rb phosphorylation at Serine 780 was detected using CDK6/cyclin D3 activity was measured by the a primary mouse anti-Rb (PS780) antibody followed phosphorylation of CTRF using [g-33P] […] Plates were read in an kinase buffer containing 68 mM Hepes at pH 7.5, 6.67 mM Acumen Explorer eX3 (TTP Labtech). […] 10µL of CDK6/cyclin corresponding to 500-530 nm and the percentage of D3 enzyme complex (Millipore 14-519, #D13BP009NA) cells with pRb signal relative to the total PI stained (1 nM final concentration in the assay) was added onto subpopulation was calculated by the instrument’s software a mix of substrate and test compound. […]

IC50 (pRb (Ser780)): 13 ± 2 nM
IC50 (MDA-MB-361 cells; n = 2, read-out: IC50 2n (G1 arrest)): 38 ± 2 nM
IC50 (MDA-MB-361 cells; n = 2, read-out: IC50 Cell number): 45 ± 14 nM
SMILES: CCN1CCN(Cc2ccc(Nc3ncc(F)c(-c4cc(F)c5nc(C)n(C(C)C)c5c4)n3)nc2)CC1 [abemaciclib, Abemaciclib]
CDK9 inhibition in tumors (pCTD, MCL1 expression) (ZR-75-1 xenograft tumors): not inhibited at any dose
phospho-(Ser780/807/811)-Rb, Topo IIα and phospho-(Ser10)-H3 in tumors (ZR-75-1 xenograft tumors; tumors collected 24 hours later): inhibition of phospho-(Ser780/807/811)-Rb
